The structures appear in SMILES notation. Marks after values point to notes of the source that are not given here.

Data set [1] has as its system RAW 264.7 macrophages. The experiment in a line: Inflammation parameters (TNF-α, NO, IL-6) in supernatant of LPS-stimulated RAW 264.7 macrophages. The data set is classed as cell-based. The settings on record: 10 μM, LPS 1 μg/ml, 24 h. The method, then:
To determine the production of cytokines, 5×10^5 RAW 264.7 macrophages were seeded in 24-well plates (0.5 ml per well). The compounds to be tested were then added (10 μM), and the macrophages were either stimulated or not through the addition of LPS (1 μg/ml) to the culture medium. After 24 hours, the levels of IL-6 and TNF-α were measured in the supernatants by ELISA using the capture and biotinylated antibodies from BD PharMingen and PrepoTech (Gonzalez-Rey et al., Gut. 2009; 58:929-939; Sánchez et al., Stem Cells. 2011; 29:251-262). The levels of NO in the supernatants at 24 hours were measured indirectly by determining the nitrite concentration in the medium using the Griess reagent (Anderson et al., Gut. 2013; 62:1131-1141). A minimum of two independent experiments and three replicates per experiment were performed for each measured value. The values are expressed as the mean±standard deviation.
In the previous assay, the levels of various inflammation parameters were measured (TNF-α, NO, and IL-6) by ELISA after treatment with RES or with compound 2 (FIGS. 3, 4, and 5).

A short description of data set [2]: Zebrafish embryo toxicity assay. The settings on record: in vivo, other: incubation of embryos with the compound, 0 to 96 hpf. The method, then: Twenty zebrafish embryos were incubated for each concentration of compound to be tested (1 to 4). The concentrations used of each compound are 0.1 μM, 1 μM, 10 μM, 100 μM and 1 mM. The incubation period goes from 0 to 96 hours post fertilization (hpf). A negative control of 1% DMSO and a positive control of N, N-diethylaminobenzaldehyde (DEAB) are included. After the incubation period, the LC50 (lethal dose for 50% of the animals) is calculated.

Data set [3] deals with Prpf31^A216P/+ (KI) mice. The experiment in a line: Prpf31 A216P/+ mice RPE degeneration model, eye drops and light damage. In kind it is in vivo, mouse. The settings on record: for Fundus Abnormal (%) / Fundus Normal (%) / Fundus Abnormal (number) / Fundus Normal (number): 2 mM eye drops daily for two and a half months, 5,000 lux 3 h; for Fundus Abnormal (number) / Fundus Normal (number): n=10; for number of positive responses in optomotor test (visual acuity): 6 spatial frequencies 0.031-0.272 cycles/degree, vs control KI; for thickness of the retina (OCT): vs control KI group; for statistical association with normal fundi vs control KI group: chi-square / Fisher's exact test. From the text: Prpf31^A216P/+ mice are a useful model for assessing the degeneration of the RPE. This model is characterized by an increase in the thickness of the Bruch membrane and accumulation of esterified cholesterol between said membrane and the RPE produced by a defect in the splicing of the mRNA of relevant genes of the visual cycle, such as RPE65 and RDH12. The accumulation of toxic products derived from retinol leads to an increase in ROS, infiltration of macrophages, and primary degeneration of the RPE. The degeneration of the RPE occurs late, at approximately 8 months of age. The phenotypic characteristics of this model can be exacerbated by exposure to intense light and are characterized primarily by accumulation of pseudo-drusenoid lesions and regions of atrophy observed in the fundus, with a loss of visual acuity and perception of contrast being observed, as well as a decrease in the amplitude of the c-wave of the ERG and a decrease in the thickness of the retina.
To evaluate the protective effect of the administration of our compounds in eye drops, we used heterozygous 6 month-old Prpf31^A216P/+ (KI) mice that were treated topically with 20 μl of the studied compounds applied directly on the corneal surface daily (L-V) for two and a half months. The compounds used were RES and compound 2, which were diluted in a solution of 13% hydroxypropyl-beta-cyclodextrin (CYCLO) in order to obtain a final concentration of 2 mM of each compound. After two and a half months of application of the eye drops with CICLO, RES, or compound 2, the mutant KI mice were exposed to a light source of 5,000 lux for 3 hours. Normal (WT) and KI mice were also exposed to intense light as test control without receiving any treatment. Subsequently, the fundus of the animals was evaluated, in addition to the visual acuity by means of the optomotor test, the thickness of the retina by means of optical coherence tomography (OCT), and the amplitude of the c-wave by ERG.
Two categories were used to quantify the macroscopic characteristics of the fundus: abnormal and normal fundus. The fundi categorized as abnormal were those in which the presence of autofluorescent pseudo-drusenoid lesions was observed (FIG. 11; arrows) or with regions of focal atrophy (FIG. 11; arrowheads). The percentage of abnormal fundi in the WT mice exposed to light (WT control) was 20%, and in the untreated KI (KI control) it was 90%. Meanwhile, this percentage was reduced to 30% in mice treated with compound 2 (KI 2) and only to 60% in both mice treated with CYCLE (KI CYCLE) and RES (KI RES) (table 1). […] These values were similar to those observed when comparing WT control and KI control (chi-square=7.35, P<0.01, Fisher's exact test P<0.05) and with a probability of obtaining a normal fundus in the WT control group of eight times greater than in the control KI (normal RR=8; IC95%=1.184-54.043).
To evaluate the thickness of the retina in vivo, a Stratus OCT (Zeiss) was used with a scanner adjusted to 6 lines of 3.45 mm each arranged radially. Six measurements were performed in each eye, upon which the retinal map was prepared (FIG. 12) with the thickness of the retina quantified from the ganglion cell layer to the RPE.
To evaluate the functional integrity of the RPE, the amplitude of the c-wave in the ERG was measured. The c-wave is defined as a positive slow wave that appears after the b-wave and is used to measure the functional integrity of the RPE. Since the amplitude of this wave can be affected by the integrity of the photoreceptors, it is best to normalize the results with the amplitude of the b-wave, for which reason a quantification was performed of the proportion of the amplitude of the c-wave between the amplitude of the b-wave (c-/b-wave ratio) (FIG. 13). […]

[4] abbreviates: KI mice, 2 mM eye drops, light damage.

The LC50 is the concentration that kills 50% of the test population. Lower therefore signals greater toxicity. Regarding `CCCCCCCC(=O)OCC1OC(Oc2cc(O)cc(/C=C/c3ccc(O)cc3)c2)C(O)C(O)C1O` [Compound 2, trans-resveratrol-3-O-(6′-O-octanoyl)-β-D-glucopyranoside], in data set [1] (ELISA), the “IL-6 in culture medium” value is reported as “similarly”. For the same compound, in data set [2], the LC50 was < 140 µM. Besides, in data set [3] (KI mice), the “Fundus Abnormal (%)” value was “(30) %”, the “Fundus Normal (%)” value is “(70)* %”, the “Fundus Abnormal (number)” value was found to be 3 and the “Fundus Normal (number)” value was 7. Also, the “Fundus Abnormal (%)” value in data set [3] (KI mice, listed as compound 2) came to 30%. Moreover, in data set [3] (setting [4]), the “autofluorescent pseudo-drusenoid lesions and regions of focal atrophy in the fundus” value was “this type of lesion was not observed”; the “c-/b-wave ratio (ERG)” value was “significantly higher”; the “number of positive responses in optomotor test (visual acuity)” value is “significantly higher”; the “thickness of the retina (OCT)” value was “significantly greater”. For the same compound, the “autofluorescent pseudo-drusenoid lesions and regions of focal atrophy in the fundus” value in data set [3] (KI mice, 2 mM eye drops, light damage, listed as compound 2) is “prevented the formation”. Also, the “statistical association with normal fundi vs control KI group” value in data set [3] is “statistically significant relationship”. In addition, in data set [3] (vs KI control, IC95% = 1.044-46.949), the “RR normal (probability of normal fundus vs. KI control)” value worked out at 7.
In the case of `Oc1ccc(C=Cc2cc(O)cc(O)c2)cc1` [RES, resveratrol, reference compound], in data set [1] (ELISA), the “IL-6 in culture medium” value is “significantly decreases” and the “TNF-α in culture medium” value is recorded as “significantly decreases”. The “NO in culture medium” value in data set [1] (Griess reagent) is “significantly decreases”. The LC50 in data set [2] was < 1000 µM. Also, in data set [3] (KI mice), the “Fundus Normal (%)” value is reported as “(40) %”, the “Fundus Abnormal (number)” value amounted to 6 and the “Fundus Normal (number)” value is 4. In addition, in data set [3] (setting [4]), the “autofluorescent pseudo-drusenoid lesions and regions of focal atrophy in the fundus” value is “areas with autofluorescent punctiform yellow-white lesions (arrows) were observed”; the “number of positive responses in optomotor test (visual acuity)” value is reported as “only significant at 0.194 cycles/degree”; the “thickness of the retina (OCT)” value was “significantly greater”. In addition, in data set [3], the “statistical association with normal fundi vs control KI group” value is listed as “no statistically significant association”.

The values above are taken from US11213536B2, “Acylated compounds for the treatment of ocular pathologies” (CONSEJO SUPERIOR DE INVESTIGACIONES CIENTÍFICAS, priority 2016, dated 2022).
